IC50 data for 18 compounds are collected here from patent publication US12156880B2, “Heterocyclic RIP1 kinase inhibitors” (Rigel Pharmaceuticals, Inc., priority 2021, dated 2024).

For test [1], the system named is L929 cells. Kind of test: L929 cell necroptosis assay (TNFa + zVAD, CellTiter-Glo recovery). It is filed as cell-based, murine. Particulars: Mus musculus, L929, 18 h, TNFa 2 ng/mL + zVAD-fmk, read-out: L929-CTG-recovery, L929, TNFa + zVAD (IC50). An outline of the steps:
(§1)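 Human U937 (50K/well, 60 uM zVAD-fmk medium, plated same day) or murine L929 (10K/well, plated 18 h, then 40 uM zVAD-fmk medium) were grown in RPMI with 10% FBS. Both were pretreated with compound for 1 h at 37 °C before TNFa at 2 ng/mL final. Viability was read by CellTiter-Glo luminescence after 18 h.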
In general terms: In ATP-based viability assays light output follows the ATP content of the culture.

Test [2] has as its target T1, RIPK1 (Homo sapiens, UniProt Q13546).
T1 sequence (Q13546 1-671): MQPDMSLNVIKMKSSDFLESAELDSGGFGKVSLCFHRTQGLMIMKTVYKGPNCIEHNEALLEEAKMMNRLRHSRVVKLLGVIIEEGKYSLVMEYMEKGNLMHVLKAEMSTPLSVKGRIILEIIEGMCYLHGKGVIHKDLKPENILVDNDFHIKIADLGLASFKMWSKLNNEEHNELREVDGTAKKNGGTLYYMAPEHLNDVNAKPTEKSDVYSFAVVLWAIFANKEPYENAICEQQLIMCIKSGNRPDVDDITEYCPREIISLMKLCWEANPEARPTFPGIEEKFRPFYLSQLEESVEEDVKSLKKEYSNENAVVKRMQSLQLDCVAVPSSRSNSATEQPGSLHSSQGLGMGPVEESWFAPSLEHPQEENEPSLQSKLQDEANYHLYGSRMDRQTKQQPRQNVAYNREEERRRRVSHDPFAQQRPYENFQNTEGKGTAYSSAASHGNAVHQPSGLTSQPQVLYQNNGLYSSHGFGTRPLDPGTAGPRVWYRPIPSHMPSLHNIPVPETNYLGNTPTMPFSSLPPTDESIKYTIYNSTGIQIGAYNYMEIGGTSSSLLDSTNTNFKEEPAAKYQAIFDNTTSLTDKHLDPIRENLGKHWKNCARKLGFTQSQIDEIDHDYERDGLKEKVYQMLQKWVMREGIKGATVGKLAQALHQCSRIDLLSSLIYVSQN
Kind of test: RIPK1 ADP-Glo biochemical kinase assay. Particulars: read-out: RIPK1 ADP-Glo Kinase (IC50). An outline of the steps: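 RIPK1 at 31 ng/well in Tris pH 7.4 buffer with MgCl2, BSA, DTT and MnCl2, reacted with compounds (duplicate) for 30 min at 30 °C. ADP formed detected by ADP-Glo: 40 min stop/depletion, then 30 min detection reagent at room temperature; luminescence read.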
On the technique in general: In ADP-Glo the light output rises with the ADP produced.

The test system of test [3] is U937 cells. The test can be described thus: U937 cell necroptosis assay (TNFa + zVAD, CellTiter-Glo recovery). It is filed as cell-based. The conditions noted are these: Homo sapiens, U-937, 18 h, TNFa 2 ng/mL + zVAD-fmk, read-out: U937 Zvad TNF CTG Recovery, U937, TNFa + zVAD (IC50). In short, it runs like this:
as §1

Take `CN1C(=O)[C@@H](NC(=O)n2cc(Cc3cccc(F)n3)cn2)CCc2c(F)cc(C#CC(C)(C)O)cc21` [I-121, (S)—N-(6-Fluoro-8-(3-hydroxy-3-methylbut-1-yn-1-yl)-1-methyl-2-oxo-2,3,4,5-tetrahydro-1H-benzo[b]azepin-3-yl)-4-((6-fluoropyridin-2-yl)methyl)-1H-pyrazole-1-carboxamide]: the IC50 – broadly, the concentration at which inhibition is half-maximal – in test [1] amounted to 11000 nM; in test [2] it was 26.1 nM; in test [3], 174 nM.
The matching figures for `CN1C(=O)[C@@H](NC(=O)c2cc(Cn3cccn3)ccn2)COc2ccc(C#CC3(O)COC3)cc21` [I-70, (S)-4-((1H-pyrazol-1-yl)methyl)-N-(7-((3-hydroxyoxetan-3-yl)ethynyl)-5-methyl-4-oxo-2,3,4,5-tetrahydrobenzo[b][1,4]oxazepin-3-yl)picolinamide]: 2640 nM, 44.9 nM and 281 nM.
The like results for `CN1C(=O)[C@@H](NC(=O)c2cc(Oc3cccnc3F)ccn2)COc2ccc(C#CC3CCOCC3)cc21` [I-125, (S)-4-((2-fluoropyridin-3-yl)oxy)-N-(5-methyl-4-oxo-7-((tetrahydro-2H-pyran-4-yl)ethynyl)-2,3,4,5-tetrahydrobenzo[b][1,4]oxazepin-3-yl)picolinamide] were, in that order, 11.5 nM, 23.4 nM and 0.9 nM.
As to `CN1C(=O)[C@@H](NC(=O)n2cc(Cc3cccc(F)n3)cn2)COc2ccc(C#CC(C)(C)C3CCOCC3)cc21` [I-107, (S)-4-((6-Fluoropyridin-2-yl)methyl)-N-(5-methyl-7-(3-methyl-3-(tetrahydro-2H-pyran-4-yl)but-1-yn-1-yl)-4-oxo-2,3,4,5-tetrahydrobenzo[b][1,4]oxazepin-3-yl)-1H-pyrazole-1-carboxamide], the IC50 in test [1] is 307 nM; in test [2], 53.8 nM; in test [3] it was 2 nM.
With `CN1C(=O)[C@@H](NC(=O)c2cc(Cc3cccnc3)ccn2)COc2ccc(C#CC3(O)COC3)cc21` [I-62, (S)—N-(7-((3-hydroxyoxetan-3-yl)ethynyl)-5-methyl-4-oxo-2,3,4,5-tetrahydrobenzo[b][1,4]oxazepin-3-yl)-4-(pyridin-3-ylmethyl)picolinamide], the half-inhibitory concentration (IC50) in test [1] turned out to be 1370 nM; in test [2] it was 21.5 nM; in test [3], 10.9 nM.
Regarding `CN1C(=O)[C@@H](NC(=O)n2cc(Cc3cccc(F)n3)cn2)COc2ccc(C#CC3CCOCC3)cc21` [I-34, (S)-4-((6-Fluoropyridin-2-yl)methyl)-N-(5-methyl-4-oxo-7-((tetrahydro-2H-pyran-4-yl)ethynyl)-2,3,4,5-tetrahydrobenzo[b][1,4]oxazepin-3-yl)-1H-pyrazole-1-carboxamide], the IC50 is 68.1 nM in test [1], 15.3 nM in test [2] and 1.3 nM in test [3].
The like results for `CN1C(=O)[C@@H](NC(=O)c2cc(Cc3cccnc3F)ccn2)COc2ccc(C#CC3COC3)cc21` [I-52, (S)-4-((2-fluoropyridin-3-yl)methyl)-N-(5-methyl-7-(oxetan-3-ylethynyl)-4-oxo-2,3,4,5-tetrahydrobenzo[b][1,4]oxazepin-3-yl)picolinamide] were, in that order, 657 nM, 16.5 nM and 2.2 nM.
The matching figures for `Cc1ccc(Oc2ccnc(C(=O)N[C@H]3COc4ccc(C#CC(C)(C)O)cc4N(C)C3=O)c2)cn1` [I-4, (S)—N-(7-(3-hydroxy-3-methylbut-1-yn-1-yl)-5-methyl-4-oxo-2,3,4,5-tetrahydrobenzo[b][1,4]oxazepin-3-yl)-4-((6-methylpyridin-3-yl)oxy)picolinamide]: 7060 nM, 55.3 nM and 361 nM.
As to `CN1C(=O)[C@@H](NC(=O)c2cc(Oc3ccc(F)nc3)ccn2)COc2ccc(C#CC(C)(C)O)cc21` [I-6, (S)-4-((6-fluoropyridin-3-yl)oxy)-N-(7-(3-hydroxy-3-methylbut-1-yn-1-yl)-5-methyl-4-oxo-2,3,4,5-tetrahydrobenzo[b][1,4]oxazepin-3-yl)picolinamide], the IC50 in test [1] came out at 3420 nM; in test [2], 40.9 nM; in test [3] it was 49.6 nM.
The matching figures for `CN1C(=O)[C@@H](NC(=O)c2cc(Cc3cccc(F)n3)ccn2)COc2ccc(C#CC3(O)COC3)cc21` [I-7, (S)-4-((6-fluoropyridin-2-yl)methyl)-N-(7-((3-hydroxyoxetan-3-yl)ethynyl)-5-methyl-4-oxo-2,3,4,5-tetrahydrobenzo[b][1,4]oxazepin-3-yl)picolinamide]: 449 nM, 18.6 nM and 14.8 nM.
The matching figures for `CN1C(=O)[C@@H](NC(=O)c2cc(Cc3cocn3)ccn2)COc2ccc(C#CC(C)(C)O)cc21` [I-137, (S)—N-(7-(3-hydroxy-3-methylbut-1-yn-1-yl)-5-methyl-4-oxo-2,3,4,5-tetrahydrobenzo[b][1,4]oxazepin-3-yl)-4-(oxazol-4-ylmethyl)picolinamide]: 87.4 nM, 11.9 nM and 25.5 nM.
Consider `Cc1cccc(Oc2ccnc(C(=O)N[C@H]3COc4ccc(C#CC5(O)COC5)cc4N(C)C3=O)c2)n1` [I-131, (S)—N-(7-((3-hydroxyoxetan-3-yl)ethynyl)-5-methyl-4-oxo-2,3,4,5-tetrahydrobenzo[b][1,4]oxazepin-3-yl)-4-((6-methylpyridin-2-yl)oxy)picolinamide], for which the IC50 in test [1] came to 2670 nM; in test [2] it was 24.5 nM; in test [3], 263 nM.
The matching figures for `Cc1ncccc1Oc1ccnc(C(=O)N[C@H]2COc3ccc(C#CC(C)(C)O)cc3N(C)C2=O)c1` [I-74, (S)—N-(7-(3-hydroxy-3-methylbut-1-yn-1-yl)-5-methyl-4-oxo-2,3,4,5-tetrahydrobenzo[b][1,4]oxazepin-3-yl)-4-((2-methylpyridin-3-yl)oxy)picolinamide]: 3520 nM, 35.9 nM and 126 nM.
The matching figures for `CCc1nc(Cc2ccnc(C(=O)N[C@H]3COc4ccc(C#CC(C)(C)O)cc4N(C)C3=O)c2)cs1` [I-98, (S)-4-((2-ethylthiazol-4-yl)methyl)-N-(7-(3-hydroxy-3-methylbut-1-yn-1-yl)-5-methyl-4-oxo-2,3,4,5-tetrahydrobenzo[b][1,4]oxazepin-3-yl)picolinamide]: 111 nM, 24 nM and 15.5 nM.
The matching figures for `CN1C(=O)[C@@H](NC(=O)c2cc(Cc3cccc(F)n3)ccn2)COc2ccc(C#CC3CCOCC3)cc21` [I-53, (S)-4-((6-fluoropyridin-2-yl)methyl)-N-(5-methyl-4-oxo-7-((tetrahydro-2H-pyran-4-yl)ethynyl)-2,3,4,5-tetrahydrobenzo[b][1,4]oxazepin-3-yl)picolinamide]: 114 nM, 35.1 nM and 3 nM.
As for `CN1C(=O)[C@@H](NC(=O)n2cc(Cc3cccc(C(F)(F)F)n3)cn2)COc2ccc(C#CC(C)(C)O)cc21` [I-9, (S)—N-(7-(3-Hydroxy-3-methylbut-1-yn-1-yl)-5-methyl-4-oxo-2,3,4,5-tetrahydrobenzo[b][1,4]oxazepin-3-yl)-4-((6-(trifluoromethyl)pyridin-2-yl)methyl)-1H-pyrazole-1-carboxamide], the IC50 is 2690 nM in test [1], 64.3 nM in test [2] and 163 nM in test [3].
The matching figures for `CN1C(=O)[C@@H](NC(=O)c2cc(Oc3cccnc3F)ccn2)COc2ccc(C#CC3(O)COC3)cc21` [I-56, (S)-4-((2-fluoropyridin-3-yl)oxy)-N-(7-((3-hydroxyoxetan-3-yl)ethynyl)-5-methyl-4-oxo-2,3,4,5-tetrahydrobenzo[b][1,4]oxazepin-3-yl)picolinamide]: 275 nM, 10.5 nM and 2.9 nM.
On to `CN1C(=O)[C@@H](NC(=O)c2cc(Oc3cnn(C)c3)ccn2)COc2ccc(C#CC(C)(C)C)cc21` [I-132, (S)—N-(7-(3,3-dimethylbut-1-yn-1-yl)-5-methyl-4-oxo-2,3,4,5-tetrahydrobenzo[b][1,4]oxazepin-3-yl)-4-((1-methyl-1H-pyrazol-4-yl)oxy)picolinamide], for which the IC50 in test [1] is 71.8 nM; in test [2], 24.2 nM; in test [3], 4.1 nM.
